Results on six compounds are retold here after patent publication US20240043434A1, “COCRYSTALS OF UPADACITINIB” (AbbVie Inc., priority 2021, published 2024).

Values after ≈ are worked out from the molar mass of the structure shown. Like-named read-outs stand apart in the source and are kept apart here.

Data set [1] can be described thus: Aqueous solubility determination of upadacitinib cocrystals. In kind it is physicochemical. Conditions: aqueous solubility in water at 37° C., equilibrated by end-over-end tumbling for up to 24 hours. The protocol: A solubility study was performed to determine the aqueous solubility for five of the upadacitinib cocrystals disclosed herein. Sufficiently sized samples of the solid cocrystals were added to individual vials along with a measured volume of water. The water-cocrystal mixtures were equilibrated at 37° C. by end-over-end tumbling for up to 24 hours. The amount of dissolved solid was determined for each sample.

Data set [2] can be described thus: Storage stability determination of upadacitinib cocrystals (open dish, 40° C./75% RH). Further details: reference not given here. Conditions: chemical purity after storage in open dish at 40° C./75% RH up to one month. In kind it is physicochemical. Here is the method: A storage stability study was performed to determine the short term stability for each of the five upadacitinib cocrystals disclosed herein. Samples of each upadacitinib cocrystal were stored in an open dish at 40° C./75% relative humidity (RH) for up to one month.

In turn, `CC[C@@H]1CN(C(=O)NCC(F)(F)F)C[C@@H]1c1cnc2cnc3[nH]ccc3n12.O=C(O)c1ccc(O)c(O)c1` [3,4-dihydroxybenzoic acid cocrystal] showed a Solubility in data set [1] of 11300 ± 200 µg/mL. Moreover, the Purity in data set [2] is on record as 103.9%.
Taken in the same sequence, the figures for `CC(=O)Nc1ccc(C(=O)O)cc1.CC[C@@H]1CN(C(=O)NCC(F)(F)F)C[C@@H]1c1cnc2cnc3[nH]ccc3n12` [4-acetamidobenzoic acid cocrystal] were 2530 ± 30 µg/mL and 100.0%.
Regarding `CC[C@@H]1CN(C(=O)NCC(F)(F)F)C[C@@H]1c1cnc2cnc3[nH]ccc3n12.O=C(O)c1ccc(O)c([N+](=O)[O-])c1` [4-hydroxy-3-nitrobenzoic acid cocrystal], in data set [1], the Solubility came out at 1470 ± 10 µg/mL. For the same compound, in data set [2], the Purity is on record as 99.9%.
`CC[C@@H]1CN(C(=O)NCC(F)(F)F)C[C@@H]1c1cnc2cnc3[nH]ccc3n12.O=C(O)c1ccc(O)cc1` [4-hydroxybenzoic acid cocrystal] displayed a Solubility in data set [1] of 4290 ± 50 µg/mL. Besides, the Purity in data set [2] stood at 102.7%.
Turning to `CC[C@@H]1CN(C(=O)NCC(F)(F)F)C[C@@H]1c1cnc2cnc3[nH]ccc3n12` [Upadacitinib Form I, (3S,4R)-3-ethyl-4-(3H-imidazo[1,2-a]pyrrolo[2,3-e]pyrazin-8-yl)-N-(2,2,2-trifluoroethyl)pyrrolidine-1-carboxamide, reference compound], the Solubility in data set [1] (thermodynamic from solid, read-out: Solubility) worked out at 370 ± 4 µg/mL (≈ 973 µM). Moreover, in data set [2], the Purity is on record as 100.2%.
`CCC1CN(C(=O)NCC(F)(F)F)CC1c1cnc2cnc3[nH]ccc3n12.O=C(O)c1cc(O)c(O)c(O)c1` (stereo not drawn) [gallic acid cocrystal] showed a Solubility in data set [1] of 5130 ± 50 µg/mL. This compound came in with a Purity in data set [2] of 103.8%.
